As usually defined, the IC50 is the concentration that inhibits the measured activity by half.

SMILES strings stand for the structures. The source made the active and inactive calls.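 How the source made its calls: active means IC50 at or below 20 µM; inactive means the rest.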

In this assay the target is Fatty acid synthase (Homo sapiens) (UniProt P49327). Kind of assay: FAS thioesterase domain inhibitors, SAR follow-up, biochemical, kinetic fluorescence intensity, dose response (AID 652165). Particulars: recombinant FAS-TE, OMFH fluorogenic substrate.
Sequence of Fatty acid synthase (Homo sapiens) (P49327 whole entry, looked up, the tested form may be a part): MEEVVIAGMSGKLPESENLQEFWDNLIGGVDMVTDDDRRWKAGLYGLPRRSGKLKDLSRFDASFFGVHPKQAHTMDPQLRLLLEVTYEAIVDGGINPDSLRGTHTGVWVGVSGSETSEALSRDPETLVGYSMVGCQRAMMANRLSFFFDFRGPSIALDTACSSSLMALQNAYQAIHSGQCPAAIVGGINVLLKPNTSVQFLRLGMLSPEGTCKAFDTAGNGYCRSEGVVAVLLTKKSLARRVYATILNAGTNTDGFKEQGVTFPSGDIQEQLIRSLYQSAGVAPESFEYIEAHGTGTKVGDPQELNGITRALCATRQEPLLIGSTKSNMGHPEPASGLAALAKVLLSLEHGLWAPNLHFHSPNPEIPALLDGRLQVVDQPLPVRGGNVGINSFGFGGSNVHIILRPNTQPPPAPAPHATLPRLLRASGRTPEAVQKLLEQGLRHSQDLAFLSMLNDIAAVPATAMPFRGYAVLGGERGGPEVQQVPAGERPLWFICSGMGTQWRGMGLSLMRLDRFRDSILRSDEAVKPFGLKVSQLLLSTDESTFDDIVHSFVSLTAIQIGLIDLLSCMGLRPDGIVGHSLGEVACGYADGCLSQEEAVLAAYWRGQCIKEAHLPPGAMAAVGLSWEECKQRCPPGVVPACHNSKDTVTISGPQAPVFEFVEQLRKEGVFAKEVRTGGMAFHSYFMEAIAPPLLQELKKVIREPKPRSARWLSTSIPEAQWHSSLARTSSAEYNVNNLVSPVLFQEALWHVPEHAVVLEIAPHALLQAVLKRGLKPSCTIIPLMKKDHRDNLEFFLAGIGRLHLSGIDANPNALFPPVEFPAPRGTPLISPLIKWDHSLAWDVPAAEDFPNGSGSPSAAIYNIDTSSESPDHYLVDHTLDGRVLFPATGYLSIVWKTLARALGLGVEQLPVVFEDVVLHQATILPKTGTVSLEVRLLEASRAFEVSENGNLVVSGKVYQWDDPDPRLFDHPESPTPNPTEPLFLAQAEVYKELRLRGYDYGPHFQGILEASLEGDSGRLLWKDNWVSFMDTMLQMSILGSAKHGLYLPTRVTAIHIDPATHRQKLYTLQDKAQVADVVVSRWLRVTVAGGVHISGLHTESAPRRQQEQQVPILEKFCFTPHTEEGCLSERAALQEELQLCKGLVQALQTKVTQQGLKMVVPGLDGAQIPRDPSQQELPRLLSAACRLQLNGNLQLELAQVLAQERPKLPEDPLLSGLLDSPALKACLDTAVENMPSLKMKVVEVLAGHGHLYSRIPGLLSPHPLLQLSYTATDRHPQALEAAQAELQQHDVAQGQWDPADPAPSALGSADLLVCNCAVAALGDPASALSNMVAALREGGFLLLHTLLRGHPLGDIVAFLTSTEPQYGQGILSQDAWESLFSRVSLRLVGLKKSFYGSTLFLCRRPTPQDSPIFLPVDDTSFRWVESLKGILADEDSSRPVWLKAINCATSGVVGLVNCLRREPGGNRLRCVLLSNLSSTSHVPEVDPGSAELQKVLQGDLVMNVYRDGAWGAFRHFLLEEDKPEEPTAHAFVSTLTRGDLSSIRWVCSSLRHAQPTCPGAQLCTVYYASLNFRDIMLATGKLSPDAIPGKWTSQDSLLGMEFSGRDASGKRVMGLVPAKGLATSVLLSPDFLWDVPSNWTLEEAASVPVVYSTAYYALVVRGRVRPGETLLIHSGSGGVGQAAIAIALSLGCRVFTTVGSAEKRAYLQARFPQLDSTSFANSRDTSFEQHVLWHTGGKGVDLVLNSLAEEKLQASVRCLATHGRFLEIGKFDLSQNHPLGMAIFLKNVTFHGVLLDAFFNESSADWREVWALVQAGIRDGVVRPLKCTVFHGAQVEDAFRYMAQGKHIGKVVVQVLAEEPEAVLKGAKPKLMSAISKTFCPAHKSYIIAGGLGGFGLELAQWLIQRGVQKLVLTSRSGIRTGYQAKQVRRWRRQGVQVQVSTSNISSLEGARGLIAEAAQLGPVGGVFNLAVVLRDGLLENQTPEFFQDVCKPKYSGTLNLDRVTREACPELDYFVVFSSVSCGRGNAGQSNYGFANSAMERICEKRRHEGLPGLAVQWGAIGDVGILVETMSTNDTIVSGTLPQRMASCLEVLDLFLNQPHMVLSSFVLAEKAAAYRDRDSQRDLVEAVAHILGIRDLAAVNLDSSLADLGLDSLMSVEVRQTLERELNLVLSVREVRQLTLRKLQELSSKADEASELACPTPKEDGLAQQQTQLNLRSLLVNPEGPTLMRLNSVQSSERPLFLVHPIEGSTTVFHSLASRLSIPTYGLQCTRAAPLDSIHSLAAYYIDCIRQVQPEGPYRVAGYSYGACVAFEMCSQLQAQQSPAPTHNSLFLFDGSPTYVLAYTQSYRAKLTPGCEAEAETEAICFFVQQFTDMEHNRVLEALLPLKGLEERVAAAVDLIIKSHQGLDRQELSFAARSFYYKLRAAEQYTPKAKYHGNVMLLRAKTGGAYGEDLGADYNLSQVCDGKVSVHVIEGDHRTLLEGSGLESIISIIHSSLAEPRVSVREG
Consider `CC(C)C(=O)Nc1nc(-c2ccc(S(=O)(=O)N(C)C)cc2)cs1`, for which the IC50 was 559 nM.

`O=C(Nc1nc(-c2ccc(S(=O)(=O)N3CCCC3)cc2)cs1)C1CCCC1`: the IC50 is 751 nM. For `CCC(C)C(=O)Nc1nc(-c2ccc(S(=O)(=O)N(CC)CC)cc2)cs1` (centres undefined) the value was 296 nM; for `CCCCC(=O)Nc1nc(-c2ccc(S(=O)(=O)N3CCSCC3)cc2)cs1`, 649 nM. With `CC(=O)Nc1nc(-c2ccc(S(=O)(=O)N3CCSCC3)cc2)cs1`, the IC50 is > 80000 nM (inactive). For the compound `CCCCC(=O)Nc1nc(-c2ccc(C(=O)N3CCOCC3)cc2)cs1`, the IC50 entry was “inactive”.

Turning to `CCC(=O)Nc1nc(-c2ccc(S(=O)(=O)N3CCCC3)cc2)cs1`, the IC50 was 644 nM.

For `CC1CCN(S(=O)(=O)c2ccc(-c3csc(NC(=O)C(C)C)n3)cc2)CC1`, the IC50 was 643 nM. For `CCN(CC)S(=O)(=O)c1ccc(-c2csc(NC(=O)C(C)C)n2)cc1` the value was 318 nM. For `CCCCC(=O)Nc1nc(-c2ccc(S(=O)(=O)N3CCOCC3)cc2)cs1` the value was 552 nM; for `O=C(Nc1nc(-c2ccc(S(=O)(=O)N3CCCC3)cc2)cs1)C1CCC1`, 347 nM.

Consider `CCCCC(=O)Nc1nc(-c2ccc(S(=O)(=O)N3CCCC3)cc2)cs1`, for which the half-maximal inhibitory concentration (IC50) is 193 nM. For `CCCCC(=O)Nc1nc(-c2ccc(S(=O)(=O)N(CC)CC)cc2)cs1` the value was 169 nM.

Regarding `CCCCC(=O)Nc1nc(-c2cccc(S(=O)(=O)N3CCOCC3)c2)cs1`, the IC50 was 18100 nM. The figure for `CCC(CC)C(=O)Nc1nc(-c2ccc(S(=O)(=O)N3CCOCC3)cc2)cs1` is 307 nM; for `O=C(Nc1nc(-c2ccc(S(=O)(=O)N3CCOCC3)cc2)cs1)C1CC1` it is 5110 nM.

As for `CN(C)S(=O)(=O)c1ccc(-c2csc(NC(=O)C3CC3)n2)cc1`, the IC50 is 1290 nM. The figure for `CC(=O)Nc1nc(-c2ccc(S(=O)(=O)N3CCOCC3)cc2)cs1` is 12000 nM. For `CC(C)CC(=O)Nc1nc(-c2ccc(S(=O)(=O)N3CCOCC3)cc2)cs1` the value was 6620 nM; for `CN(C)S(=O)(=O)c1ccc(-c2csc(NC(=O)C3CCC3)n2)cc1`, 1360 nM. The figure for `CC(C)C(=O)Nc1nc(-c2ccc(S(=O)(=O)N3CCCC3)cc2)cs1` is 295 nM; for `CCC(C)C(=O)Nc1nc(-c2ccc(S(=O)(=O)N3CCOCC3)cc2)cs1` (centres undefined) it is 289 nM; for `O=C(Nc1nc(-c2ccc(S(=O)(=O)N3CCOCC3)cc2)cs1)C1CCCCC1` it is > 80000 nM (inactive). In the case of `CCC(=O)Nc1nc(-c2ccc(S(=O)(=O)N3CCOCC3)cc2)cs1`, the IC50 is 4160 nM. For `CCN(CC)S(=O)(=O)c1ccc(-c2csc(NC(=O)C3CC3)n2)cc1` the value was 2470 nM; for `O=C(Nc1nc(-c2ccc(S(=O)(=O)N3CCOCC3)cc2)cs1)C1CCC1`, 3450 nM. For `CCN(CC)S(=O)(=O)c1ccc(-c2csc(NC(=O)C3CCCC3)n2)cc1` the value was 1180 nM; for `CC(C)(C)OC(=O)Nc1nc(-c2ccc(S(=O)(=O)N3CCOCC3)cc2)cs1`, “inactive”. The figure for `O=C(Nc1nc(-c2ccc(S(=O)(=O)N3CCOCC3)cc2)cs1)C1CCCC1` is > 80000 nM (inactive); for `CC1CCN(S(=O)(=O)c2ccc(-c3csc(NC(=O)C4CC4)n3)cc2)CC1` it is > 80000 nM (inactive). For `CCN(CC)S(=O)(=O)c1ccc(-c2csc(NC(=O)C3CCC3)n2)cc1`, the IC50 is 966 nM. The figure for `CC(C)C(=O)Nc1nc(-c2ccc(S(=O)(=O)N3CCOCC3)cc2)cs1` is 875 nM; for `CCC(=O)Nc1nc(-c2ccc(S(=O)(=O)N(CC)CC)cc2)cs1` it is 3980 nM; for `O=C(Nc1nc(-c2ccc(S(=O)(=O)N3CCCC3)cc2)cs1)C1CC1` it is 658 nM. The figure for `CCC(=O)Nc1nc(-c2ccc(S(=O)(=O)N3CCC(C)CC3)cc2)cs1` is > 80000 nM (inactive); for `CCN(CC)S(=O)(=O)c1ccc(-c2csc(NC(=O)C3CCCCC3)n2)cc1` it is 3140 nM. On to `CCCCC(=O)Nc1nc(-c2ccc(S(=O)(=O)N3CCC(C)CC3)cc2)cs1`, for which the IC50 was 533 nM. Regarding `CN(C)S(=O)(=O)c1ccc(-c2csc(NC(=O)C3CCCC3)n2)cc1`, the IC50 was 1500 nM. The figure for `CCC(=O)Nc1nc(-c2ccc(S(=O)(=O)N(C)C)cc2)cs1` is 1090 nM.

For the origin of these results see PubChem BioAssay AID652165 (Sanford-Burnham Center for Chemical Genomics, 2013).
